The assay has as its target TNFα (Homo sapiens, UniProt P01375). In words: TNF induced HEK-Blue assay (NF-kB-driven secreted alkaline phosphatase reporter). The assay is classed as cell-based. The conditions noted are these: TNFα 0.5 ng/mL, HEK-Blue-CD40L cells, 18 h. The method, boiled down: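 HEK-Blue-CD40L cells (NF-kB-driven SEAP reporter), 20,000/well, added after 30 min pre-incubation of compound (0.004–25 μM final) with TNFα 0.5 ng/mL final at 37 °C; 18 h incubation. SEAP read with QUANTI-Blue at 620 nm; IC50 from 4-parameter logistic fit, normalized to unstimulated and stimulated DMSO controls.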

The mark [1] stands for this setting: read-out: TNF induced HEK-Blue assay IC50 value.

Each structure is given as a SMILES string. Like-named read-outs stand apart in the source and are kept apart here.

Usually IC50 stands for the concentration that inhibits the measured activity by half.

TNFα, sequence (P01375 77-233 limits assumed): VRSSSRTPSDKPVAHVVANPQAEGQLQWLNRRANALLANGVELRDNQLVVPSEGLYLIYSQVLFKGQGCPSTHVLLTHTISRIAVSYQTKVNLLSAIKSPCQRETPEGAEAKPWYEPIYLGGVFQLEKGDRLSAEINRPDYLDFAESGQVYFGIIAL

In the case of `C[C@@H](Nc1c(Cl)cnc2ccccc12)c1cc(-c2cncc(C#N)c2)ccc1F` [Example 541, (R)-5-(3-(1-((3-chloroquinolin-4-yl)amino)ethyl)-4-fluorophenyl)nicotinonitrile], the IC50 under setting [1] was in the range of 1000 to 10000 nM.

Turning to `CC(C)(O)c1ncc(-c2ccc3ncc(Cl)c(NC(c4ccccc4F)C4CC4)c3c2)cn1` (racemic) [Example 191, 2-(5-(3-chloro-4-((cyclopropyl(2-fluorophenyl)methyl)amino)quinolin-6-yl)pyrimidin-2-yl)propan-2-ol], the IC50 under setting [1] was below 1000 nM.

As for `CC(CC1CCCC1)Nc1c(Cl)cnc2ccc(-c3cnc(C(C)(C)O)nc3)cc12` (racemic) [Example 140, 2-(5-(3-chloro-4-((1-cyclopentylpropan-2-yl)amino)quinolin-6-yl)pyrimidin-2-yl)propan-2-ol], the IC50 under setting [1] was below 1000 nM.

Turning to `Cc1nc2ccc(-c3cnc(C(C)(C)O)nc3)cc2c(N[C@H](C)c2cc(CO)ccc2F)c1Cl` [Example 431, (R)-2-(5-(3-chloro-4-((1-(2-fluoro-5-(hydroxymethyl)phenyl)ethyl)amino)-2-methylquinolin-6-yl)pyrimidin-2-yl)propan-2-ol], under setting [1], the IC50 is below 1000 nM.

Regarding `Cc1nc2ccc(-c3cnc(C(C)(C)O)nc3)cc2c(N[C@H](C)c2cc(C#N)ccc2F)c1C` [Example 314, (R)-4-fluoro-3-(1-((6-(2-(2-hydroxypropan-2-yl)pyrimidin-5-yl)-2,3-dimethylquinolin-4-yl)amino)ethyl)benzonitrile], under setting [1], the IC50 is below 1000 nM.

In the case of `C[C@@H](Nc1c(Cl)cnc2ccccc12)c1cc(-c2cnn(C)c2)ccc1F` [Example 454, (R)-3-chloro-N-(1-(2-fluoro-5-(1-methyl-1H-pyrazol-4-yl)phenyl)ethyl)quinolin-4-amine], the concentration for half-maximal inhibition (IC50) under setting [1] is below 1000 nM.

For the molecule `CCOC(=O)C1CCN(c2ncc(-c3cc4c(NC(C)c5ccccc5F)c(Cl)cnc4cc3F)cn2)CC1` (single isomer, unassigned) [Example 243, ethyl-1-(5-(3-chloro-7-fluoro-4-((1-(2-fluorophenyl)ethyl)amino)quinolin-6-yl)pyrimidin-2-yl)piperidine-4-carboxylate], under setting [1], the IC50 is below 1000 nM.

As to `CC(Nc1c(Cl)cnc2ccc(-c3ccc(C(C)(C)O)cc3)cc12)c1ccccn1` (racemic) [Example 175, 2-(4-(3-chloro-4-((1-(pyridin-2-yl)ethyl)amino)quinolin-6-yl)phenyl)propan-2-ol], under setting [1], the IC50 was below 1000 nM.

With `C[C@@H](Nc1c(Cl)cnc2ccc(-c3cnc(C(C)(C)O)nc3)cc12)c1cc(-c2ncccn2)ccc1F` [Example 345, (R)-2-(5-(3-chloro-4-((1-(2-fluoro-5-(pyrimidin-2-yl)phenyl)ethyl)amino)quinolin-6-yl)pyrimidin-2-yl)propan-2-ol], the IC50 under setting [1] is below 1000 nM.

For `CC(C)(O)c1ncc(-c2ccc3ncc(Cl)c(NC(CCF)c4ccccc4F)c3c2)cn1` (racemic) [Example 230, 2-(5-(3-chloro-4-((3-fluoro-1-(2-fluorophenyl)propyl)amino)quinolin-6-yl)pyrimidin-2-yl) propan-2-ol], the IC50 under setting [1] was below 1000 nM.

Take `C[C@H](Nc1c(Cl)cnc2ccc(-c3cnc(C(C)(C)O)nc3)cc12)C1CCCCC1` [Example 59, (S)-2-(5-(3-chloro-4-((1-cyclohexylethyl)amino)quinolin-6-yl)pyrimidin-2-yl)propan-2-ol]: the IC50 under setting [1] is 10000 to 25000 nM.

With `C[C@@H](Nc1c(Cl)cnc2ccc(-c3ccc(N4CCO[C@@H](CO)C4)nc3)cc12)c1ccccc1F` [Example 83, ((R)-4-(5-(3-chloro-4-(((R)-1-(2-fluorophenyl)ethyl)amino)quinolin-6-yl)pyridin-2-yl)morpholin-2-yl)methanol], the IC50 under setting [1] is below 1000 nM.

In the case of `CC(Nc1c(Cl)cnc2ccc(-c3cnc(C(C)(C)O)nc3)cc12)[C@H]1CCCN(CC(O)CO)C1` (stereo partly drawn) [Example 106, 3-((S)-3-((S)-1-((3-chloro-6-(2-(2-hydroxypropan-2-yl)pyrimidin-5-yl)quinolin-4-yl)amino)ethyl)piperidin-1-yl)propane-1,2-diol], the IC50 under setting [1] is 1000 to 10000 nM.

As to `OC[C@@H]1CN(c2ncc(-c3ccc4ncc(Cl)c(N[C@@H](c5ccccc5F)C(F)F)c4c3)cn2)CCO1` [Example 87, ((S)-4-(5-(3-chloro-4-(((S)-2,2-difluoro-1-(2-fluorophenyl)ethyl)amino)quinolin-6-yl)pyrimidin-2-yl)morpholin-2-yl)methanol], the IC50 under setting [1] was below 1000 nM.

For `CC(Nc1c(Cl)cnc2cc(F)c(-c3cnc(C(C)(O)CO)nc3)cc12)c1ccccc1F` (stereo not shown) [Example 257, 2-(5-(3-chloro-7-fluoro-4-((1-(2-fluorophenyl)ethyl)amino)quinolin-6-yl)pyrimidin-2-yl)propane-1,2-diol], the IC50 under setting [1] is below 1000 nM.

Turning to `Cc1nc2ccc(-c3cnc(C(C)(C)O)nc3)cc2c(N[C@H](C)c2cc(O)ccc2F)c1Cl` [Example 404, (R)-3-(1-((3-chloro-6-(2-(2-hydroxypropan-2-yl)pyrimidin-5-yl)-2-methylquinolin-4-yl)amino)ethyl)-4-fluorophenol], the IC50 under setting [1] is below 1000 nM.

For `C[C@@H](Nc1c(Cl)cnc2cc(F)c(-c3cnc(C(C)(C)O)nc3)nc12)c1cc(C(N)=O)ccc1F` [Example 583, (R)-3-(1-((3-chloro-7-fluoro-6-(2-(2-hydroxypropan-2-yl)pyrimidin-5-yl)-1,5-naphthyridin-4-yl)amino)ethyl)-4-fluorobenzamide], the IC50 under setting [1] was below 1000 nM.

For `CC(Nc1c(Cl)cnc2cc(F)c(-c3cnc(C(C)(C)O)cn3)cc12)c1ccccc1F` (racemic) [Example 294, 2-(5-(3-chloro-7-fluoro-4-((1-(2-fluorophenyl)ethyl)amino)quinolin-6-yl)pyrazin-2-yl)propan-2-ol], the IC50 under setting [1] is below 1000 nM.

In the case of `C[C@@H](Nc1c(Cl)cnc2cc(F)c(-c3cnc(C(C)(C)O)nc3)cc12)c1cc(C(N)=O)ccc1F` [Example 392, (R)-3-(1-((3-chloro-7-fluoro-6-(2-(2-hydroxypropan-2-yl)pyrimidin-5-yl)quinolin-4-yl)amino)ethyl)-4-fluorobenzamide], under setting [1], the IC50 was below 1000 nM.

Consider `C[C@@H](Nc1c(Cl)cnc2ccc(-c3cnc(C4(O)CCC(=O)CC4)nc3)cc12)c1ccccc1F` [Example 114, (R)-4-(5-(3-chloro-4-((1-(2-fluorophenyl)ethyl)amino)quinolin-6-yl)pyrimidin-2-yl)-4-hydroxycyclohexanone], for which, under setting [1], the IC50 was below 1000 nM.

Consider `CCCC(C)C(N)c1c(Cl)c(C)nc2ccc(-c3cnc(C(C)(C)O)nc3)cc12` (single isomer, unassigned) [Example 358, 2-(5-(4-(1-amino-2-methylpentyl)-3-chloro-2-methylquinolin-6-yl)pyrimidin-2-yl)propan-2-ol], for which, under setting [1], the IC50 lay within 10000 to 25000 nM.

With `CC(Nc1c(Cl)cnc2c(F)cc(-c3cnc(C(C)(C)O)nc3)cc12)c1ccccc1F` (racemic) [Example 247, 2-(5-(3-chloro-8-fluoro-4-((1-(2-fluorophenyl)ethyl)amino)quinolin-6-yl)pyrimidin-2-yl)propan-2-ol], the IC50 (TNF induced HEK-Blue assay IC50 value) was below 1000 nM.

`C=Cc1ccc(F)c([C@H](Nc2c(Cl)cnc3cc(F)c(-c4cnc(C(C)(C)O)nc4)nc23)C(F)F)c1` [Example 495, (S)-2-(5-(7-chloro-8-((2,2-difluoro-1-(2-fluoro-5-vinylphenyl)ethyl)amino)-3-fluoro-1,5-naphthyridin-2-yl)pyrimidin-2-yl)propan-2-ol]: under setting [1], the IC50 was below 1000 nM.

In the case of `Cc1nc2ccc(-c3cnc(N4CCN(CC(=O)O)CC4)nc3)cc2c(N[C@H](C)c2cc(C#N)ccc2F)c1Cl` [Example 377, (R)-2-(4-(5-(3-chloro-4-((1-(5-cyano-2-fluorophenyl)ethyl)amino)-2-methylquinolin-6-yl)pyrimidin-2-yl)piperazin-1-yl)acetic acid], the IC50 under setting [1] was below 1000 nM.

For `C[C@@H](Nc1c(Cl)cnc2ccc(-c3cnc(N4CCN([C@@H](CN)C(=O)O)CC4)nc3)cc12)c1ccccc1F` [Example 94, (S)-3-amino-2-(4-(5-(3-chloro-4-(((R)-1-(2-fluorophenyl)ethyl)amino)quinolin-6-yl)pyrimidin-2-yl)piperazin-1-yl)propanoic acid], the concentration for half-maximal inhibition (IC50) under setting [1] is below 1000 nM.

With `CCC(Nc1c(Cl)cnc2ccc(-c3cnc(C(C)(C)O)nc3)cc12)c1nc(Br)ccc1F` (racemic) [Example 64, 2-(5-(4-((1-(6-bromo-3-fluoropyridin-2-yl)propyl)amino)-3-chloroquinolin-6-yl)pyrimidin-2-yl)propan-2-ol], the half-inhibitory concentration (IC50) under setting [1] was below 1000 nM.

As to `Cc1nc2cc(F)c(-c3cnc(C(C)(C)O)nc3)nc2c(N[C@@H](c2cc(C(N)=O)ccc2F)C(F)F)c1Cl` [Example 497, (S)-3-(1-((3-chloro-7-fluoro-6-(2-(2-hydroxypropan-2-yl)pyrimidin-5-yl)-2-methyl-1,5-naphthyridin-4-yl)amino)-2,2-difluoroethyl)-4-fluorobenzamide], the half-inhibitory concentration (IC50) under setting [1] was below 1000 nM.

With `CC(Nc1c(Cl)cnc2ccc(-c3cnc(C(C)(C)O)nc3)cc12)[C@H]1CCCNC1` (single isomer, unassigned) [Example 97], the IC50 under setting [1] was below 1000 nM.

For `C[C@@H](Nc1c(Cl)cnc2ccc(-c3ccc(C(=O)NCCCCN)nc3)cc12)c1ccccc1F` [Example 101, (R)—N-(4-aminobutyl)-5-(3-chloro-4-((1-(2-fluorophenyl)ethyl)amino)quinolin-6-yl)picolinamide], the IC50 under setting [1] was in the range of 10000 to 25000 nM.

In the case of `C[C@@H](Nc1c(Cl)cnc2ccc(-c3ccc(CO)cc3)cc12)c1ccccc1F` [Example 220, (R)-(4-(3-chloro-4-((1-(2-fluorophenyl)ethyl)amino)quinolin-6-yl)phenyl)methanol], the half-maximal inhibitory concentration (IC50) under setting [1] is 10000 to 25000 nM.

As to `Cc1nc2ccc(-c3cnc(N4CCS(=O)(=O)CC4)nc3)cc2c(NC(C)c2ccccc2F)c1Cl` (racemic) [Example 310, 4-(5-(3-chloro-4-((1-(2-fluorophenyl)ethyl)amino)-2-methylquinolin-6-yl)pyrimidin-2-yl)thiomorpholine 1,1-dioxide], the IC50 under setting [1] is below 1000 nM.

These data come from US10865191B2, “Heterocyclic compounds useful as modulators of TNF alpha” (BRISTOL-MYERS SQUIBB COMPANY, priority 2015, dated 2020).
